Source: patent publication US20240294499A1, “TARGETED PROTEIN DEGRADATION USING BIFUNCTIONAL COMPOUNDS THAT BIND UBIQUITIN LIGASE AND TARGET MCL-1 PROTEIN” (Captor Therapeutics S.A., priority 2021, published 2024)

Experiments:
[1] = biological target: T1, [MCL-1]-[compound of formula (I)]-[CRBN/DDB1] complex (Homo sapiens, UniProt Q07820+Q96SW2); test: HTRF ternary complex assay; type: binding; settings: ternary complex formation; read-out: HTRF ternary complex Average pEC50 by molecule (converted)
In short: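 hMcl-1 and CRBN (mix at 48 nM and 105.6 nM) with Streptavidin-Eu cryptate and anti-6×His-d2 in PPI Europium buffer with 2 mM DTT; compounds in dose-response, 0.5% DMSO. Incubated 180 min at 25° C, TR-FRET 665/620 read. Bell-shaped curve fitted by Gaussian; EC50 reported.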

[2] = test system: MV-4-11 cells; test: Cell viability assay (CellTiter-Glo), MV-4-11; type: cell-based; settings: Homo sapiens, MV4-11, 24 hours incubation, 1% FBS, read-out: Average pIC50 by molecule MV-4-11 (converted)
In short: (§1)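 Luminescent ATP readout (CellTiter-Glo) at 24 hours measured viability, expressed relative to DMSO-treated wells. Compound was added directly to the medium as a 9–12-point threefold series starting at 30 uM, at 0.5% final DMSO. The medium contained FBS reduced to 1%.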

[3] = test system: DMS 114 cells; test: Cell viability assay (CellTiter-Glo), DMS 114; type: cell-based; settings: Homo sapiens, DMS-114, 72 h, 72 hours incubation, 10% FBS, read-out: Average pIC50 by molecule DMS 114 (converted)
Source text: The effect of various compounds of the invention on the viability of DMS 114 cell line was investigated, using the CTG protocol described below.
DMS 114 cell line is derived from small-cell lung cancer, which is described in the literature as MCL-1 dependent lines [Yasuda Y et al. Cell Death & Disease 2020; 11: 177].
DMS 114 cells were detached with trypsin and then resuspended in growth medium containing 10% FBS and counted. Cell suspension was then adjusted to 5×10^4 cells/ml using growth medium containing 10% FBS. Afterwards, […] were seeded on 384-well plates (50 μl). Plates were then placed in the incubator overnight until treated. Next day, compounds were added using ECHO 555 liquid handler. Compound concentrations used in this assay: 1/3 dilutions starting at 30 uM (9 to 12 points).
After 72 hours of incubation, cell viability was evaluated using CellTiter-Glo Luminescent Cell Viability Assay (Promega, cat #G7572). Luminescence signal was measured using a CLARIOstar Plus Multi-Mode Microplate Reader (574-590 nm).

[4] = test system: ARH-77 cells; test: Cell viability assay (CellTiter-Glo), ARH-77; type: cell-based; settings: Homo sapiens, ARH-77, 24 hours incubation, 1% FBS, read-out: Average pIC50 by molecule ARH-77 (converted)
In short: as §1

[5] = biological target: T1, [MCL-1]-[compound of formula (I)]-[CRBN/DDB1] complex; test: AlphaLISA dose response ternary complex formation assay; type: binding; settings: read-out: AlphaLISA dose response Average pEC50 by molecule (converted)
In short: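 EC50 comes from dose–response of AlphaLISA luminescence (excitation 680, emission 615 nm), normalised between DMSO background and an internal positive control, with concentrations past the hook point dropped. Ternary complex formed by mixing bead-bound biotin-hMCL-1 and His-CRBN/DDB1 (protein solutions 40 and 200 nM) with compound in 2% DMSO, 30 min, 25 °C.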

[6] = test system: OPM-2 cells; test: Cell viability assay (CellTiter-Glo), OPM-2; type: cell-based; settings: Homo sapiens, 24 hours incubation, 1% FBS, read-out: Average pIC50 by molecule OPM-2 (converted)
Source text: The effect of various compounds of the invention on the viability of OPM-2, MV-4-11 and ARH-77 cell lines was investigated, using the CTG protocol described below.
OPM-2 and MV-4-11 cell lines are derived from multiple myeloma and acute myeloid leukaemia, respectively. Both cell lines are described in the literature as MCL-1 dependent lines, as opposed to lymphoblast-like ARH-77 cell line, which is described as independent of MCL-1 (Tron A E et al. Nat Commun. 2018; 9: 5341; Caenepeel S et al. Cancer Discov. 2018 December; 8(12):1582-1597).
Cells (OPM-2, MV-4-11 or ARH-77) were seeded on […] in a growth medium with FBS reduced to 1%. Next, compound stocks were pre-diluted in DMSO and added directly to the cells growth medium (final DMSO concentration: 0.5%). Compound concentrations used in this assay: 1/3 dilutions starting at 30 uM (9 to 12 points).
After 24 hours of incubation, cell viability was evaluated using CellTiter-Glo Luminescent Cell Viability Assay (Promega, cat #G7572). Luminescence signal was measured using a CLARIOstar Plus Multi-Mode Microplate Reader (574-590 nm).
Results were normalized to DMSO control.

T1 sequence (Q07820 whole entry): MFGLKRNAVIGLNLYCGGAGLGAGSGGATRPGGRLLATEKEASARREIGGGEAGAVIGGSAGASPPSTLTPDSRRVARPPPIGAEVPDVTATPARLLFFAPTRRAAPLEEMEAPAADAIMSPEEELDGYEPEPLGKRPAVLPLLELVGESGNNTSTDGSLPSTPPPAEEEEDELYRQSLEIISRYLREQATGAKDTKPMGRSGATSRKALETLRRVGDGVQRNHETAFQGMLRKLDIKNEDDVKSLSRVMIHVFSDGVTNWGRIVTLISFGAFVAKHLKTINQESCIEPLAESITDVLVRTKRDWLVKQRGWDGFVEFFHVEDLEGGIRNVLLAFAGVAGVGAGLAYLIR
T1 sequence (Q96SW2 whole entry): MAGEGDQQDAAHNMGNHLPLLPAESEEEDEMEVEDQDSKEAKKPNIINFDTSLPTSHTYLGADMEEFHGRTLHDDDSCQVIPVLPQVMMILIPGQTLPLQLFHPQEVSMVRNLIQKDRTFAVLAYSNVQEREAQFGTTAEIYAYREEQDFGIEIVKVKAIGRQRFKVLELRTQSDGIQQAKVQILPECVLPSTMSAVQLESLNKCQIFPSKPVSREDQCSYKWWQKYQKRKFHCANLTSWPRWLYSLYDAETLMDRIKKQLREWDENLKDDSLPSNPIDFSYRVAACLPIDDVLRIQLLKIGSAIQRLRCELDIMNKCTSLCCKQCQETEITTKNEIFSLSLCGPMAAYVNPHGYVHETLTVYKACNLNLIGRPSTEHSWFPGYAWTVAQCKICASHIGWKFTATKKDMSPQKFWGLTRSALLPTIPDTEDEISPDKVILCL
T1 sequence (Q16531 whole entry partner): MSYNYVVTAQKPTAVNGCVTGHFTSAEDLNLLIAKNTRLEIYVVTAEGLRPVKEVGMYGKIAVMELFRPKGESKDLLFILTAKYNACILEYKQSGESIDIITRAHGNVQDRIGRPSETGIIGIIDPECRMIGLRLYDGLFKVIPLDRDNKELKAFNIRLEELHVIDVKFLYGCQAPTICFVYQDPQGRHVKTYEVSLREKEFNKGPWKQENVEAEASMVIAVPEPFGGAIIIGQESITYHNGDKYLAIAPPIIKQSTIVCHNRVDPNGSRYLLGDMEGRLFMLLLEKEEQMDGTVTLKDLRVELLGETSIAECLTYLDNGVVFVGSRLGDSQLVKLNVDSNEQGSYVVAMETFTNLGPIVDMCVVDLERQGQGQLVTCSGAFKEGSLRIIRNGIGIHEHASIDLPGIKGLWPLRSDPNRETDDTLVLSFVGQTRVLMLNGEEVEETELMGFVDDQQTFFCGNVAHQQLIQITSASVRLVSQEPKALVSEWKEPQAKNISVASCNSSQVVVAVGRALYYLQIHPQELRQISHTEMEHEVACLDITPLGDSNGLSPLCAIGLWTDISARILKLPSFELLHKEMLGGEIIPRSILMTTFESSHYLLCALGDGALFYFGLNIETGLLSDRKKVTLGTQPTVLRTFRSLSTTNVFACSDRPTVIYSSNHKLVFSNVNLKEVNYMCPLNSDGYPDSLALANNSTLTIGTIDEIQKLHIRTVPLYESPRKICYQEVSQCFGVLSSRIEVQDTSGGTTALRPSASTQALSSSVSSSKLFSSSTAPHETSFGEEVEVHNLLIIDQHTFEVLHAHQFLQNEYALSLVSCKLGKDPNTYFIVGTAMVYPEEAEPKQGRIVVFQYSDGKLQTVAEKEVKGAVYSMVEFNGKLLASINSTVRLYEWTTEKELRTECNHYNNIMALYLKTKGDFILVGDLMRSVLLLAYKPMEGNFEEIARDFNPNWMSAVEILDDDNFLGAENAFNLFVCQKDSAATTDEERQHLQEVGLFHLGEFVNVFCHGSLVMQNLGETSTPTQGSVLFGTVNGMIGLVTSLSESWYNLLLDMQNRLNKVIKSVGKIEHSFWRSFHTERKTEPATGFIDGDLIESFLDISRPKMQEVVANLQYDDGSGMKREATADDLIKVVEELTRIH

Compound	EC50 [1]	IC50 [2]	IC50 [3]	IC50 [4]	EC50 [5]	IC50 [6]
Cc1nn(C)c(C)c1-c1c(Cl)ccc2c(CCCOc3cccc4cc(F)ccc34)c(C(=O)O)n(CCN3CCN(C4CCN(c5cc6c(cc5F)C(=O)N(C5CCC(=O)NC5=O)C6=O)CC4)CC3)c12 (stereo not shown) [Compound 338, 6-Chloro-1-[2-(4-{1-[2-(2,6-dioxopiperidin-3-yl)-6-fluoro-1,3-dioxo-2,3-dihydro-1H-isoindol-5-yl]piperidin-4-yl}piperazin-1-yl)ethyl]-3-{3-[(6-fluoronaphthalen-1-yl)oxy]propyl}-7-(1,3,5-trimethyl-1H-pyrazol-4-yl)-1H-indole-2-carboxylic acid]	< 10 nM	≤ 31.6 nM	≤ 10000 nM	> 10000 nM	–	–
Cc1nn(C)c(C)c1-c1c(Cl)ccc2c(CCCOc3cccc4ccccc34)c(C(=O)O)n(CCN3C[C@@H]4CN(C(=O)COc5cccc6c5C(=O)N(C5CCC(=O)NC5=O)C6=O)C[C@@H]4C3)c12 (stereo partly drawn) [Compound 211, 6-chloro-1-(2-((3aR,6aS)-5-(2-((2-(2,6-dioxopiperidin-3-yl)-1,3-dioxoisoindolin-4-yl)oxy)acetyl)hexahydropyrrolo[3,4-c]pyrrol-2(1H)-yl)ethyl)-3-(3-(naphthalen-1-yloxy)propyl)-7-(1,3,5-trimethyl-1H-pyrazol-4-yl)-1H-indole-2-carboxylic acid]	–	≤ 316 nM	–	> 10000 nM	< 100 nM	≤ 3160 nM
Cc1nn(C)c(C)c1-c1c(Cl)ccc2c(CCCOc3cccc4cc(F)ccc34)c(C(=O)O)n(CCN3CCN(C(=O)COc4c(F)ccc5c4CN(C4CCC(=O)NC4=O)C5=O)CC3)c12 (stereo not shown) [Compound 342, 6-Chloro-1-(2-(4-(2-((2-(2,6-dioxopiperidin-3-yl)-5-fluoro-1-oxoisoindolin-4-yl)oxy)acetyl)piperazin-1-yl)ethyl)-3-(3-((6-fluoronaphthalen-1-yl)oxy)propyl)-7-(1,3,5-trimethyl-1H-pyrazol-4-yl)-1H-indole-2-carboxylic acid]	–	≤ 31.6 nM	≤ 1000 nM	> 10000 nM	< 100 nM	–
Cc1nn(C)c(C)c1-c1c(Cl)ccc2c(CCCOc3cccc4cc(F)ccc34)c(C(=O)O)n(CCN3CCN(C(=O)Cn4c(C)nc5c(C(=O)NC6CCC(=O)NC6=O)ccc(Br)c54)CC3)c12 (stereo not shown) [Compound 269, 1-(2-(4-(2-(7-Bromo-4-((2,6-dioxopiperidin-3-yl)carbamoyl)-2-methyl-1H-benzo[d]imidazol-1-yl)acetyl)piperazin-1-yl)ethyl)-6-chloro-3-(3-((6-fluoronaphthalen-1-yl)oxy)propyl)-7-(1,3,5-trimethyl-1H-pyrazol-4-yl)-1H-indole-2-carboxylic acid]	< 10 nM	≤ 100 nM	≤ 3160 nM	> 10000 nM	< 100 nM	–
Cc1nn(C)c(C)c1-c1c(Cl)ccc2c(CCCOc3cccc4c3CCCC4)c(C(=O)O)n(CCN3CCN(C(=O)COc4cccc5c4C(=O)N(C4CCC(=O)NC4=O)C5=O)CC3)c12 (stereo not shown) [Compound 216, 6-chloro-1-{2-[4-(2-{[2-(2,6-dioxopiperidin-3-yl)-1,3-dioxo-2,3-dihydro-1H-isoindol-4-yl]oxy}acetyl)piperazin-1-yl]ethyl}-3-[3-(5,6,7,8-tetrahydronaphthalen-1-yloxy)propyl]-7-(1,3,5-trimethyl-1H-pyrazol-4-yl)-1H-indole-2-carboxylic acid]	< 10 nM	≤ 100 nM	≤ 3160 nM	> 10000 nM	< 10 nM	≤ 100 nM
COCc1c(-c2c(Cl)ccc3c(CCCOc4cccc5cc(F)ccc45)c(C(=O)O)n(CCN4CCN(C(=O)COc5cccc6c5CN(C5CCC(=O)NC5=O)C6=O)CC4)c23)c(C)nn1C (stereo not shown) [Compound 349, 6-Chloro-1-(2-(4-(2-((2-(2,6-dioxopiperidin-3-yl)-1-oxoisoindolin-4-yl)oxy)acetyl)piperazin-1-yl)ethyl)-3-(3-((6-fluoronaphthalen-1-yl)oxy)propyl)-7-(5-(methoxymethyl)-1,3-dimethyl-1H-pyrazol-4-yl)-1H-indole-2-carboxylic acid]	< 100 nM	≤ 31.6 nM	≤ 1000 nM	> 10000 nM	–	–
Cc1nn(C)c(C)c1-c1c(Cl)ccc2c(CCCOc3cccc4cc(F)ccc34)c(C(=O)O)n(CC[N+]3([O-])CCN(C(=O)COc4cccc5c4CN(C4CCC(=O)NC4=O)C5=O)CC3)c12 (stereo not shown) [Compound 298, 1-(2-(2-Carboxy-6-chloro-3-(3-((6-fluoronaphthalen-1-yl)oxy)propyl)-7-(1,3,5-trimethyl-1H-pyrazol-4-yl)-1H-indol-1-yl)ethyl)-4-(2-((2-(2,6-dioxopiperidin-3-yl)-1-oxoisoindolin-4-yl)oxy)acetyl)piperazine 1-oxide]	–	≤ 100 nM	≤ 1000 nM	> 10000 nM	< 10 nM	–
Cc1nn(C)c(C)c1-c1c(Cl)ccc2c(CCCOc3cccc4ccccc34)c(C(=O)O)n(CCN3CCN(C(=O)COc4cccc5c4C(=O)N(C4CCC(=O)NC4=O)C5=O)CC34CC4)c12 (stereo not shown) [Compound 210, 6-chloro-1-(2-(7-(2-((2-(2,6-dioxopiperidin-3-yl)-1,3-dioxoisoindolin-4-yl)oxy)acetyl)-4,7-diazaspiro[2.5]octan-4-yl)ethyl)-3-(3-(naphthalen-1-yloxy)propyl)-7-(1,3,5-trimethyl-1H-pyrazol-4-yl)-1H-indole-2-carboxylic acid]	–	≤ 100 nM	–	> 10000 nM	< 100 nM	≤ 1000 nM
Cc1nn(C)c(C)c1-c1c(Cl)ccc2c(CCCOc3cccc4cc(F)ccc34)c(C(=O)O)n(CCN3CCN(C(=O)[C@H](C)Oc4cccc5c4C(=O)N([C@H]4CCC(=O)NC4=O)C5=O)CC3)c12 (single isomer, unassigned) [Compound 319]	–	≤ 31.6 nM	≤ 3160 nM	> 10000 nM	< 100 nM	–
Cc1nn(C)c(C)c1-c1c(Cl)ccc2c(CCCOc3cccc4ccccc34)c(C(=O)O)n(CCN3CCN(C(=O)CNc4cccc5c4C(=O)N(C4CCC(=O)NC4=O)C5=O)CC3)c12 (stereo not shown) [Compound 207, 6-chloro-1-{2-[4-(2-{[2-(2,6-dioxopiperidin-3-yl)-1,3-dioxo-2,3-dihydro-1H-isoindol-4-yl]amino}acetyl)piperazin-1-yl]ethyl}-3-[3-(naphthalen-1-yloxy)propyl]-7-(1,3,5-trimethyl-1H-pyrazol-4-yl)-1H-indole-2-carboxylic acid]	–	≤ 316 nM	–	> 10000 nM	< 100 nM	≤ 1000 nM
